One test has as its target Gdx-Eco (Escherichia coli, UniProt P69937). Kind of test: SSM electrophysiology of Gdx-Eco proteoliposomes. The note with it: for Transport currents in substrate screen: 2 mM substrate; for Km: pH 7.5, mean ± SEM, read-out: Km determined using SSM electrophysiology. Type of test: biochemical. The protocol:
(§1) Gdx-Clo ([Kermani et al., 2018]), Gdx-Eco ([Kermani et al., 2018]), EmrE ([Kermani et al., 2022]), and Gdx-pAmi ([Martinez-Vaz et al., 2022]) construct design and purification have been described previously. […] Proteins were overexpressed in C41(DE3). Expression was induced by the addition of 0.2 mM IPTG for 3 h. Cells were lysed and extracted with 2% n-decyl-β-D-maltoside (DM) for 2 h. After pelleting insoluble cell debris, proteins were purified using cobalt affinity resin. Wash buffer contained 25 mM Tris, pH 8.5, 150 mM NaCl, and 5 mM DM. For Gdx-pAmi, NaCl concentration was increased to 500 mM NaCl. The affinity column was washed with wash buffer, then wash buffer with 10 mM imidazole, prior to elution with wash buffer with 400 mM imidazole. For Gdx-Clo and Gdx-Eco, histidine tags were cleaved with LysC (200 ng/mg of protein; 2 h at room temperature; New England Biolabs), and for all others, histidine tags were cleaved with thrombin (1 U/mg of protein, overnight at room temperature; MilliporeSigma). Proteins were further purified using a gel filtration Superdex200 column (Cytiva) equilibrated with 100 mM NaCl, 10 mM N-2-hydroxyethylpiperazine-N′-2-ethanesulfonic acid (HEPES), pH 7.5, and 5 mM DM. Purified proteins were stored at 4°C for up to 5 days before detergent binding assays. To prepare proteoliposomes for electrophysiology assays, purified protein was mixed with E. coli polar lipid extract (10 mg/ml; Avanti Polar Lipids) solubilized with 35 mM 3-[(3-cholamidopropyl)dimethylammonio]-1-propanesulfonate (CHAPS) at a protein to lipid ratio of 40 μg SMR transporter: mg lipid (1:370 protein:lipid molar ratio) prior to detergent removal by dialysis. For preparations that included Fluc-Bpe, liposomes were reconstituted with a molar ratio of 0.3 Fluc-Bpe:1 SMRGdx: 5920 lipid (1 μg Fluc-Bpe and ∼2.5 μg SMRGdx per mg lipid). For liposome transport assays, proteoliposomes were prepared similarly, except that a 2:1 mixture of 1-palmitoyl, 2-oleoylphosphatidylethanolamine (POPE) and 1-palmitoyl, 2-oleoylphosphatidylglycerol (POPG) (10 mg/ml; Avanti Polar Lipids) was used with 0.2 μg protein/mg lipid. Proteoliposomes were stored at −80°C until use.
(§2) SSM experiments were performed using SURFE^2R N1 instrument (Nanion Technologies). Sensors were prepared with a 1,2-diphytanoyl-sn-glycero-3-phosphocholine (DPhPC) lipid monolayer according to published protocols ([Bazzone et al., 2017]). Each sensor’s capacitance and conductance were verified before use (<80 nF capacitance, <50 nS conductance) using Nanion software protocols. Proteoliposome stock was diluted 1:25 in assay buffer (100 mM KCl, 100 mM KPO4, pH 7.5) prior to adsorption to the DPhPC monolayer. For substrate screening experiments, reference substrate samples (Gdm^+ for SMRGdx, and TPA^+ for SMRQac) were checked periodically to test for the stability of the sensor; if the current amplitude of the reference compound differed by >10% on one sensor, it indicated the desorption of liposomes, and the sensor was not used for further experiments. For every SSM electrophysiology experiment, we used the same general solution exchange protocol: after 2 s perfusion with a non-activating solution, we perfused substrate-containing buffer for 2 s and then returned to the equilibrium condition with a 4 s perfusion of non-activating buffer. For experiments with the S104C/A70C crosslinked variant, reducing conditions were established by the addition of 2.5 mM tris(2-carboxyethyl)phosphine (TCEP) to the activating and non-activating buffers.
(§3) We screened a series of metformin metabolites for transport using SSM electrophysiology (Fig. 2, A and B).

The test system of the next test is Gdx-pAmi. Kind of test: SSM electrophysiology of Gdx-pAmi proteoliposomes. Type of test: biochemical, Aminobacter sp. MET. To be noted: for Transport currents in substrate screen: 2 mM substrate; for Km: pH 7.5, mean ± SEM, read-out: Km determined using SSM electrophysiology. The protocol:
as §1, §2, §3

For test [1], the target named is T1, Gdx-Clo (Clostridiales bacterium oral taxon 876, UniProt U2EQ00).
T1 sequence (U2EQ00 1-105): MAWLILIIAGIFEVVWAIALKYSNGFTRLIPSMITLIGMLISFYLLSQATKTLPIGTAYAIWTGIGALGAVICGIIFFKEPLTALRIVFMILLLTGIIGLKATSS
Kind of test: Tryptophan fluorescence substrate binding. Further details: species or system Clostridales oral taxon 876. The protocol: Fluorescence emission spectra (λex = 280 nm, […]) were collected for 1 µM purified protein in assay buffer containing 200 mM NaCl, 10 mM HEPES, 10 mM bicine, 10 mM NaPO4, and 5 mM DM, with pH adjusted from 6.5 to 9.0. Substrate was added from a stock solution prepared in assay buffer. For Gdm^+ titrations, the change in fluorescence, F, as a function of substrate fit to a single site binding isotherm, ∆F=(Fmax[S]/Kd+[S]). (3)
To derive the Ka values and Kd values from the apparent Kd measured as a function of pH, we used the following equation, which uses the approximation that the protonatable E13 sidechains have equal Ka values: Kd,app=(Kd)*(1+([H^+]/Ka))*(1+([H^+]/Ka)). (5)

For test [2], the target named is T1, Gdx-Clo. Kind of test: Isothermal titration calorimetry (ITC). Type of test: binding, Clostridales oral taxon 876. The note with it: for n: ITC binding stoichiometry, pH 8.5, mean ± SEM; for Kd / TΔS / ΔG / ΔH / Binding stoichiometry: ITC; for Kd / TΔS / ΔG / ΔH: pH 8.5, 25°C, mean ± SEM; for Binding stoichiometry: pH 8.5, exothermic binding. As for the experimental part:
ITC experiments were conducted using a low-volume Nano ITC instrument (TA Instruments). […] For each experiment, 300 µl of 700 µM Gdx-Clo was loaded in the sample chamber maintained at 25°C with 350 rpm stirring speed. […] The sample was titrated (0.75 µl injections) at 100-s increments. Once an acceptable baseline slope was achieved (0.30 µW/h and 0.03 µW standard deviation), a 200 s baseline (∼112 µW) was taken prior to beginning titrations. Data were analyzed using NanoAnalyze software.
For both substrates, the Kd value measured using ITC was in good agreement with the Kd value obtained using tryptophan fluorescence, validating the tryptophan fluorescence approach to monitor substrate binding.
A general note: Isothermal titration calorimetry measures the heat released or taken up as one component is titrated into another.

The mark [3] stands for this setting: pH 6.5, tryptophan fluorescence, mean ± SEM, read-out: Kd (apparent) for substrate binding to Gdx-Clo.
Setting [4] is: pH 7.0, tryptophan fluorescence, mean ± SEM, read-out: Kd (apparent) for substrate binding to Gdx-Clo.
Where [5] appears, read: pH 7.5, tryptophan fluorescence, mean ± SEM, read-out: Kd (apparent) for substrate binding to Gdx-Clo.
The mark [6] stands for this setting: pH 8.0, tryptophan fluorescence, mean ± SEM, read-out: Kd (apparent) for substrate binding to Gdx-Clo.
The mark [7] stands for this setting: pH 8.5, tryptophan fluorescence, mean ± SEM, read-out: Kd (apparent) for substrate binding to Gdx-Clo.
Setting [8] is: pH-independent Kd, glutamates assumed to have equal Ka, read-out: Kd from fit of apparent Kd versus pH to Eq. 5.

SMILES strings stand for the structures. Where “and” joins values, the source holds several entries; their conditions need not be identical. Equal entries are not always repeated. Where two headings read alike, the source gives them in different places.

Chain of Gdx-Eco (P69937 whole entry): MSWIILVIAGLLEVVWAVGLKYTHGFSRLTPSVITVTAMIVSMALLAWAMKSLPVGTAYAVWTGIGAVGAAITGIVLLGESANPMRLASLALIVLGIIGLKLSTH

As a reminder, the Km is the substrate concentration at which the rate is half of its maximum. In the case of `N=C(N)N` [Gdm^+, guanidinium], the “Transport currents in substrate screen” value on Gdx-Eco and in the test with Gdx-pAmi was “negative capacitive currents” in each case. In addition, the Km is 1.7 ± 0.5 mM on Gdx-Eco; 16 mM and 15.7 mM in the test with Gdx-pAmi. Moreover, the “Maximal velocity for Gdm+ relative to guanylurea” value at Gdx-Eco (substrate at fivefold Km, normalized to Fluc-Bpe fluoride current) is recorded as “approximately twofold higher”. In the test on Gdx-pAmi (substrate at fivefold Km, normalized to Fluc-Bpe fluoride current and reconstitution efficiency), the “Turnover rate of Gdm+ relative to guanylurea” value was “comparable”. For the same compound, the Kd on Gdx-Clo [1] (setting [3]) was 4300 ± 1000 µM; at Gdx-Clo [1] (setting [4]) it was 1500 ± 300 µM; at Gdx-Clo [1] (setting [5]), 960 ± 120 µM; at Gdx-Clo [1] (setting [6]), 660 ± 80 µM; at Gdx-Clo [1] (setting [7]) it was 480 ± 100 µM; on Gdx-Clo [1] (setting [8]), 600 µM. Also, at Gdx-Clo [2], the Kd stood at 410 ± 40 µM. The compound further displayed a n at Gdx-Clo [2] of 0.56 ± 0.04. This compound yielded a TΔS on Gdx-Clo [2] of -0.3 ± 0.9 kcal/mol. For the same compound, the ΔG on Gdx-Clo [2] is -4.6 ± 0.1 kcal/mol. In addition, the ΔH on Gdx-Clo [2] is -4.9 ± 1.0 kcal/mol. Also, the Binding stoichiometry at Gdx-Clo [2] was ~1 substrate per protein dimer.
In the case of `N=C(N)NC(N)=O` [Guanylurea, guanylurea], the “Transport currents in substrate screen” value at Gdx-Eco and in the test on Gdx-pAmi was “negative capacitive currents” each time. The Km was 0.85 ± 0.1 mM at Gdx-Eco, 5 mM in the test with Gdx-pAmi (listed as guanylurea) and 5.2 ± 2 mM in the test with Gdx-pAmi. The Kd was determined as 860 ± 220 µM at Gdx-Clo [1] (setting [3]); 190 ± 20 µM at Gdx-Clo [1] (setting [4]); 120 ± 20 µM on Gdx-Clo [1] (setting [5]); 59 ± 1 µM on Gdx-Clo [1] (setting [6]); 91 ± 16 µM at Gdx-Clo [1] (setting [7]); 63 ± 5 µM at Gdx-Clo [1] (pH 9.0, tryptophan fluorescence, mean ± SEM, read-out: Kd (apparent) for substrate binding to Gdx-Clo). The Kd is 70 µM at Gdx-Clo [1] (setting [8]) and 140 ± 30 µM at Gdx-Clo [2]. For the same compound, the n on Gdx-Clo [2] was 0.43 ± 0.03. The compound further came in with a TΔS at Gdx-Clo [2] of -1.8 ± 0.6 kcal/mol. On Gdx-Clo [2], this compound yielded a ΔG of -5.4 ± 0.06 kcal/mol. At Gdx-Clo [2], the ΔH is -7.2 ± 0.6 kcal/mol. Further, the Binding stoichiometry on Gdx-Clo [2] was ~1 substrate per protein dimer.
